Results on one molecule are retold here after patent publication US20230381178A1, “METHODS FOR IMPROVING RENAL FUNCTION WITH A COMBINATION OF A BET BROMODOMAIN INHIBITOR AND A SODIUM DEPENDENT GLUCOSE TRANSPORT 2 INHIBITOR” (Resverlogix Corp., priority 2020, published 2023).

The conditions of assay [1]: BETonMACE, T2DM patients with a recent ACS (Ray et al. 2020); cited from earlier work.
The conditions of assay [2]: patients with established cardiovascular disease and eGFR<60 mL/min/1.73 m^2; monotherapy; p=0.04 vs. baseline (Kulikowski et al 2017); cited from earlier work.
Assay [3] in a line: BETonMACE Phase 3 trial post-hoc analysis: eGFR (Cockcroft-Gault, serum creatinine) from baseline to last visit on treatment. The class given is in vivo, human. As for the experimental part: Apabetalone (RVX-208) was evaluated in a recently completed clinical Phase 3 trial (BETonMACE; NCT02586155) for the effect on MACE in type 2 diabetes patients with low HDL cholesterol (below 40 mg/dL for males and below 45 mg/dL for females) and a recent acute coronary syndrome (ACS) (preceding 7-90 days). All patients received high intensity statin treatment or maximum tolerated statin treatment, which was 20-40 mg daily or a maximum daily dose of 40 mg for rosuvastatin or 40-80 mg daily or a maximum daily dose of 80 mg for atorvastatin.
Patients (n=2425) with ACS in the preceding 7 to 90 days, with type 2 diabetes and low HDL cholesterol (≤40 mg/dl for men, <45 mg/dl for women), receiving intensive or maximum-tolerated therapy with atorvastatin or rosuvastatin, were assigned in double-blind fashion to receive apabetalone 100 mg orally twice daily or matching placebo. Baseline characteristics include female sex (25%), myocardial infarction as index ACS event(74%), coronary revascularization for index ACS (76%), treatment with dual anti-platelet therapy (87%) and renin-angiotensin system inhibitors (91%), median LDL cholesterol 65 mg per deciliter, and median HbA1c 7.3%. The primary efficacy measure is time to first occurrence of cardiovascular death, non-fatal myocardial infarction, or stroke. The study enrolled 2425 patients and the MACE outcome population consisted of 2418 patients.
In the BETonMACE clinical study, a total of N=298 patients (N=150 in RVX-208 treatment group and N=148 in placebo treatment group) were administered an SGLT2 inhibitor (empagliflozin, dapagliflozin, or canagliflozin) in addition to RVX-208 with specified statin therapy (atorvastatin and rosuvastatin) and other guideline-defined treatments. Specifically, a total of 150 patients received both RVX-208 and an SGLT2 inhibitor; a total of 148 received an SGLT2 inhibitor, but no RVX-208; a total of 1062 received RVX-208, but no SGLT2 inhibitor; a total of 1058 received neither RVX-208 or an SGLT2 inhibitor.
Patients who were randomized and received at least one dose of SGLT2 treatment while actively receiving study drug (RVX-208 or placebo) were counted as those receiving a combination of SGLT2 treatment with either RVX-208 or placebo. Patients receiving more than one drug therapy within the SGLT2 inhibitor class were counted only once based upon whichever drug therapy patients continued taking at the end of treatment with study drug (RVX-208 or placebo). In cases where patients were receiving more than one drug therapy within the SGLT2 inhibitor class at the end of treatment with study drug, whichever SGLT2 inhibitor therapy was received for longer was counted.
Estimated glomerular filtration rate (eGFR) was calculated by the central lab using serum creatinine values and the Cockcroft-Gault formula. Serum creatinine was collected as part of the chemistry panel at the following time points: baseline, week 24, week 52, week 76, week 100, and last visit on treatment (LVT). The Cockcroft-Gault formula requires the input of an individual's age, sex, and weight. The last visit on treatment (LVT) timepoint represented the longest study exposure duration for patients receiving RVX-208 or placebo with and without SGLT2 inhibitors and is the focus of this analysis. The median time to LVT (and study drug exposure) for patients with a baseline and LVT measurements for eGFR administered an SGLT2 inhibitor (N=298) was 742 days (2.03 years). For the patients treated with a SGLT2 inhibitor and RVX-208 (N=150), the median time to LVT was 748 days (2.05 years) and for the patients treated with a SGLT2 inhibitor and received placebo (N=148), the median time to LVT was 734 days (2.01 years). No statistical difference was observed between the duration of study drug exposure, indicating a balance was observed between treatment groups. At the LVT timepoint, a total of N=121 patients in the apabetalone treatment group and N=122 patients in the placebo group had eGFR measurements. […]

With `COc1cc(OC)c2c(=O)[nH]c(-c3cc(C)c(OCCO)c(C)c3)nc2c1` [RVX-208, 2-(4-(2-hydroxyethoxy)-3,5-dimethylphenyl)-5,7-dimethoxyquinazolin-4(3H)-one], the “effect on eGFR versus placebo” value in assay [1] is on record as “did not demonstrate the ability to statistically improve eGFR versus placebo”. Further, in assay [2], the “increase in eGFR” value was 3.4%. The “effect on eGFR / renal function” value in assay [3] (BETonMACE post-hoc, T2DM patients with a recent ACS) is “not able to increase median or mean eGFR levels”. Also, the “median eGFR at last visit on treatment (LVT)” value in assay [3] (T2DM patients with recent ACS, on statin, RVX-208 100 mg orally twice daily where given, at LVT (median about 2 years)) is recorded as 96 mL/min. Also, the “median eGFR at baseline” value in assay [3] (T2DM patients with recent ACS, on statin, at baseline) is reported as 97 mL/min. In assay [3] (T2DM patients with recent ACS, FIG. 3), the “median change of eGFR from baseline to LVT” value is given as −3.2 mL/min/1.73 m^2. Also, the “mean change of eGFR from baseline to LVT” value in assay [3] (T2DM patients with recent ACS, FIG. 4) is listed as −3.3 mL/min/1.73 m^2. For the same molecule, the “median eGFR slope from baseline to LVT” value in assay [3] (eGFR difference baseline to LVT divided by number of treatment days, monotherapy groups) is −0.004.
